Test results as given in patent publication US7560476B2, “Microbicidal composition” (Rohm and Haas Company, priority 2003, dated 2009).
Read-outs that look alike come from different tables or passages of the source.

Tests used:
P. aeruginosa 9027 = experiment: Synergy test, microtiter plate high resolution MIC assay, M9GY medium; format: cell-based, Pseudomonas aeruginosa
S. aureus 6538 = experiment: as above; format: cell-based, Staphylococcus aureus
Method: (§1) Synergism was determined by an industrially accepted method described by Kull, F. C.; Eisman, P. C.; Sylwestrowicz, H. D. and Mayer, R. L., in Applied Microbiology 9:538-541 (1961), using the ratio determined by the formula: Qa/QA+Qb/QB=Synergy Index (“SI”) wherein: • QA=concentration of compound A (first component) in ppm, acting alone, which produced an end point (MIC of Compound A). • Qa=concentration of compound A in ppm, in the mixture, which produced an end point. • QB=concentration of compound B (second component) in ppm, acting alone, which produced an end point (MIC of Compound B). • Qb=concentration of compound B in ppm, in the mixture, which produced an end point.
(§2) When the sum of Qa/QA and Qb/QB is greater than one, antagonism is indicated. […] The lower the SI, the greater the synergy shown by that particular mixture. The minimum inhibitory concentration (MIC) of a microbicide is the lowest concentration tested under a specific set of conditions that prevents the growth of added microorganisms.
(§3) Synergy tests were conducted using standard microtiter plate assays with media designed for optimal growth of the test microorganism. Minimal salt medium supplemented with 0.2% glucose and 0.1% yeast extract (M9GY medium) was used for testing bacteria; Potato Dextrose Broth (PDB medium) was used for testing yeast and mold. In this method, a wide range of combinations of microbicides was tested by conducting high resolution MIC assays in the presence of various concentrations of MI. High resolution MICs were determined by adding varying amounts of microbicide to one column of a microtitre plate and doing subsequent […] dilutions using an automated liquid handling system to obtain a series of endpoints ranging from 2 ppm to 10,000 ppm active ingredient. The synergy of the combinations of the present invention was determined against two bacteria, Staphylococcus aureus (S. aureus—ATCC #6538) or Pseudomonas aeruginosa (P. aeruginosa—ATCC #15442), a yeast, Candida albicans (C. albicans—ATCC 10231), and a mold, Aspergillus niger (A. niger—ATCC 16404). […]

C. albicans 10231 = experiment: Synergy test, microtiter plate high resolution MIC assay, PDB medium; format: cell-based, Candida albicans
Method: as §1, §2, §3

A. niger 16404 = experiment: as above; format: cell-based, Aspergillus niger
Method: as §1, §2, §3

[1] = tested on: microorganisms isolated from contaminated paint; experiment: Testing of synergistic combinations in paint (repeated inoculation); format: cell-based; conditions: paint pH 8.5-8.8
Method: A paint formulation having a pH of 8.5-8.8 was prepared from an acrylic binder, cellulosic thickener, kaolin, additives for formulation, and water. Fifty grams of the paint samples are inoculated repeatedly with microorganisms isolated from contaminated paint, with rising concentrations of inoculum. This treatment is carried out once a week. Six days after each inoculation, the surviving microorganisms are evaluated in each sample by applying onto nutrient media. These streak-outs are assessed after an incubation time of up to seven days (at 27±2° C. and 85-95% relative atmospheric humidity). An unpreserve sample of the system to be examined is used to check the susceptibility to the growth of microorganisms. Five inoculation cycles are carried out, thus leading to a test duration of six weeks. The rating scale for evaluation microbial growth is as follows: […]

CNC(=O)c1ccccc1SSc1ccccc1C(=O)NC [DTBMA, 2,2′-dithiobis(N-methylbenzamide)]
MIC (P. aeruginosa 9027; Pseudomonas aeruginosa, 9027, M9GY, 72 hours, read-out: QDTBMA (MIC of DTBMA acting alone)): 1000 µg/mL
MIC (S. aureus 6538; Staphylococcus aureus, 6538, M9GY, 24 hours, read-out: QDTBMA (MIC of DTBMA acting alone)): 40 µg/mL
MIC (C. albicans 10231; Candida albicans, 10231, PDB, 48 hours, read-out: QDTBMA (MIC of DTBMA acting alone)): 40 µg/mL
MIC (A. niger 16404; Aspergillus niger, 16404, PDB, 72 hours, read-out: QDTBMA (MIC of DTBMA acting alone)): 1500 µg/mL
growth rating >5 inoc. ([1]; 0.0 ppm MI, 152.0 ppm DTBMA (0:100)): 3
growth rating >5 inoc. ([1]; 0.0 ppm MI, 228.0 ppm DTBMA (0:100)): 3

Cn1sc2ccccc2c1=O [MBI, 2-methylbenzisothiazolone]
MIC (P. aeruginosa 9027; Pseudomonas aeruginosa, 9027, M9GY, 72 hours, read-out: QMBI (MIC of MBI acting alone)): 200 µg/mL
MIC (S. aureus 6538; Staphylococcus aureus, 6538, M9GY, 24 hours, read-out: QMBI (MIC of MBI acting alone)): 8 µg/mL
MIC (C. albicans 10231; Candida albicans, 10231, PDB, 48 hours, read-out: QMBI (MIC of MBI acting alone)): 8 µg/mL
MIC (A. niger 16404; Aspergillus niger, 16404, PDB, 72 hours, read-out: QMBI (MIC of MBI acting alone)): 60 µg/mL

Cn1sccc1=O [MI, 2-methyl-4-isothiazolin-3-one]
MIC (P. aeruginosa 9027; Pseudomonas aeruginosa, 9027, 72 h, read-out: QMI (MIC of MI acting alone)): 25 µg/mL
MIC (S. aureus 6538; Staphylococcus aureus, 6538, 24 h, read-out: QMI (MIC of MI acting alone)): 60 µg/mL
MIC (C. albicans 10231; Candida albicans, 10231, 48 h, read-out: QMI (MIC of MI acting alone)): 175 µg/mL
MIC (A. niger 16404; Aspergillus niger, 16404, 72 h, read-out: QMI (MIC of MI acting alone)): 400 µg/mL
growth rating >5 inoc. ([1]; 150.0 ppm MI, 0.0 ppm DTBMA (100:0)): 2/1
